Results on seven compounds are retold here after patent US6452005B1, “JAK-3 inhibitors for treating allergic disorders” (Parker Hughes Institute, priority 1999, dated 2002).

pIC50: −log10 of the molar value. Read-outs that look alike come from different tables or passages of the source.

Assay [1] deals with T1, human JAK3 (Homo sapiens, UniProt P52333).
T1 construct: KL-2 EBV-transformed human lymphoblastoid B cells (native JAK3 kinase assays); endogenous in cells; host or cells: KL-2 EBV-transformed human lymphoblastoid B cell line
T1 sequence (P52333 1-1124): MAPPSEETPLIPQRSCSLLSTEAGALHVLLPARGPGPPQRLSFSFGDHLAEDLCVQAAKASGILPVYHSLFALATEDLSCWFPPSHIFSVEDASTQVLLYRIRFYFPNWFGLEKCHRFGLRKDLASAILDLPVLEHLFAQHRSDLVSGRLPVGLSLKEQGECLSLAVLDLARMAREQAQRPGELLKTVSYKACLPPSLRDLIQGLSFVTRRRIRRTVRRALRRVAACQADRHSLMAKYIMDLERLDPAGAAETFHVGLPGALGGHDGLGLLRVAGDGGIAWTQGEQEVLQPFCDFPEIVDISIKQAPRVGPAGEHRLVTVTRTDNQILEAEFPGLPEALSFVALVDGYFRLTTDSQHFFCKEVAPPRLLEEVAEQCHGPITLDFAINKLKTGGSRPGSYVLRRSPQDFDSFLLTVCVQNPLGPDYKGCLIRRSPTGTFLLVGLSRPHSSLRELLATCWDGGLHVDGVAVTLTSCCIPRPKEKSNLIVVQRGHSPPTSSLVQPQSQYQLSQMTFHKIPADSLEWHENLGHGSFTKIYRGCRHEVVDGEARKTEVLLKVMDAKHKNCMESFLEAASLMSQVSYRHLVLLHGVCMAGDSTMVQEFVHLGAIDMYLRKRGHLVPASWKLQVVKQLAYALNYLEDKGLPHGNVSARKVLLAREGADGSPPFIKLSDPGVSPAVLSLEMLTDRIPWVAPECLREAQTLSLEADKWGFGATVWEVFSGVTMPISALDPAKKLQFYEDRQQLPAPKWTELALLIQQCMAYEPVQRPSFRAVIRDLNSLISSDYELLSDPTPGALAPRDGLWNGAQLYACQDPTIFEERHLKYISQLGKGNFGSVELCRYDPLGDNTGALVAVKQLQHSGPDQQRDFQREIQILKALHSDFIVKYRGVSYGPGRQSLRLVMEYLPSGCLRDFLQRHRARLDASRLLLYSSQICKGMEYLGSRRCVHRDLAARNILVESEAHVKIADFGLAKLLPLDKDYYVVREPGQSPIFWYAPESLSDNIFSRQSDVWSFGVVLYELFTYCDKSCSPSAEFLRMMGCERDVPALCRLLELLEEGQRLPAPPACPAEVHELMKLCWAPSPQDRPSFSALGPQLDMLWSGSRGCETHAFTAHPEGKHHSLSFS
As to the kind of experiment: JAK3 kinase inhibition (Table 1 IC50, immune complex kinase assay). It is filed as biochemical. As to conditions: for pIC50: Table 1, measured inhibition values for JAK3 kinase. As for the experimental part:
Immune Complex Kinase Assays.
(§1) KL-2 EBV-transformed human lymphoblastoid B cells (native JAK3 kinase assays) or insect ovary cells (recombinant JAK3 kinase assays) were lysed with NP-40 lysis buffer (50 mM Tris, pH 8, 150 mM NaCl, 5 mM EDTA, 1% NP-40, 100 μM sodium orthovanadate, 100 μM sodium molybdate, 8 μg/ml aprotinin, 5 μg/ml leupeptin, and 500 μM PMSF) and centrifuged 10 minutes at 13000×g to remove insoluble material. Samples were immunoprecipitated with antisera prepared against JAK3. The antisera were diluted and immune complexes collected by incubation with 15 μl protein A Sepharose. After 4 washes with NP-40 lysis buffer, the protein A Sepharose beads were washed once in kinase buffer (20 mM MOPS, pH 7.0, 10 mM MgCl2) and resuspended in the same buffer. Reactions were initiated by the addition of 25 μCi γ[^32P] ATP (5000 Ci/mMole) and unlabeled ATP to a final concentration of 5 μM. Reactions were terminated by boiling for 4 min in SDS sample buffer. Samples were run on 9.5% SDS polyacrylamide gels and labeled proteins will be detected by autoradiography. Following electrophoresis, kinase gels were dried onto Whatman 3M filter paper and subjected to phosphoimaging on a Molecular Imager (Bio-Rad, Hercules, Calif.) as well as autoradiography on film. For each drug concentration, a kinase activity index (KA) was determined by comparing the kinase activity in phosphorimager units (PIU) to that of the baseline sample. In some experiments, cold kinase assays were performed, as described (Uckun et. al., 1998, Clin. Cancer Res., 4:901-912).

Assay [2] deals with T1, human JAK3. As to the kind of experiment: Immune complex kinase assay, JAK3 immunoprecipitated from KL2 EBV-transformed lymphoblastoid B cell line. The format is biochemical. To be noted: JAK3 immunoprecipitated from KL2 cells. As for the experimental part: as §1, with “Following electrophoresis, kinase gels were dried onto Whatman 3M filter paper and subjected to phosphoimaging on a Molecular Imager (Bio-Rad, Hercules, Calif.) as well as autoradiography on film.” left out, “In some experiments, cold kinase assays were performed, as described (Uckun et. al., 1998, Clin. Cancer Res., 4:901-912).” left out

Assay [3] concerns RBL-2H3 mast cells. The assay can be described thus: IgE/antigen-induced degranulation and mediator release. As to conditions: 1 h preincubation, DNP-BSA challenge; at ≧30 μM. It is filed as cell-based, rat. From the text:
Vehicle treated control RBL-2H3 cells released 45.1±3.1% of their hexosaminidase contents after DNP-BSA challenge. […] Vehicle treated control cells released 11.3±1.3 pg LTC4, and 160±33.0 pg TNFα/10^6 mast cells. The results on LTC4 and TNFα release are expressed as percent of maximum control release from vehicle treated control mast cells. The data points represent the mean±SEM values obtained from 3-6 independent experiments. […] *P<0.05 and **P<0.0001 compared to control as determined by Student's t test.
Supernatants were removed and saved.

The subject of assay [4] is RBL-2H3 mast cells. As to the kind of experiment: IgE/antigen-induced activation (cell spreading, microtubule organization) by confocal microscopy. It is filed as cell-based, rat. As to conditions: 30 μM, two hour incubation. Here is the method: RBL-2H3 cells were cultured overnight on 22×22 mm coverslips at a cell density of 0.01×10^6/ml with […] DNP-IgE. Sensitized RBL-2H3 cells were then treated with 30 μM WHI-P131, vehicle, or control compounds WHI-P258 and WHI-P112 prior to challenge with DNP-BSA, as described in the legend of FIG. 4. After stimulation with DNP-BSA for 1 hour, cells were fixed in cold methanol for 15 minutes followed by permeabilization with PBS containing 0.1% Triton X-100. […] After washing 3 times with PBS-0.1% Triton X-100, cells were incubated with fluorescein labeled secondary antibody (Zymed, San Francisco, Calif.) for another 40 minutes. Cells were washed three times to remove unbound antibody. DNA labeling was performed by incubation of coverslips with toto-3 (Molecular Probes, Eugene, Oreg.) for 10 minutes. Excessive dye was washed with PBS-0.1% Triton X-100. Cells were visualized under MRC 1024 Laser Scanning Microscope after mounting with Vectashield (Vector laboratories, Inc, Burlingame, Calif.), as previously reported.
Confocol Microscopy: Staining of mast cells with primary and secondary antibodies followed by confocal laser scanning microscopy was performed as previously described in detail (Uckun et. al., 1998, Clin. Cancer Res., 4:901-912). After staining with appropriate primary and secondary antibodies, cells were washed three times to remove unbound antibody. DNA labeling was performed by incubation of coverslips with toto-3 (Molecular Probes, Eugene, Oreg.) for 10 min. Excessive dye was washed with PBS-0.1% triton X-100. Cells were visualized under MRC 1024 Laser Scanning Microscope after mounting with Vectashield (Vector laboratories, Inc, Burlingame, Calif.).
In a systematic effort aimed at elucidating the biologic consequences of JAK3 inhibition in mast cells, we first sought to determine if the JAK3 inhibitor WHI-P131 could prevent the IgE receptor/FcεRI-mediated activation of mast cells. Since the IgE receptor/FcεRI-mediated activation of mast cells results in a distinct morphologic transformation with marked cell spreading due to membrane ruffling, microtubule formation and actin polymerization (Apgar, 1997), we evaluated the effects of WHI-P131 on the activation-associated transformation of shape and surface topography of RBL-2H3 mast cells using confocal laser scanning microscopy (Ghosh et. al., 1998).

Assay [5] has as its system JAK3-dependent STAT activation. As to the kind of experiment: EMSA, IL-2 triggered STAT activation in 32Dc11/IL2Rβ cells. The format is cell-based. To be noted: 10 μg/ml, 32Dc11/IL2Rβ cells. As for the experimental part:
Electrophoretic Mobility Shift Assays (EMSAs). EMSAs were performed to examine the effects of dimethoxyquinazoline compounds on cytokine-induced STAT activation (Goodman et. al., 1998). […] Cells were collected after 15 minutes and resuspended in lysis buffer (100 mM Tris-HCl pH 8.0, 0.5% NP-40, 10% glycerol, […], 0.1 mM NaVO3, 50 mM NaF, 150 mM NaCl, 1 mM DTT, 3 μg/ml Aprotinin, 2 μg/ml Pepstatin A, 1 μg/ml Leupeptin and 0.2 mM PMSF). Lysates were precleared by centrifugation for 30 min. Cell extracts (approximately 10 μg) were incubated with 2 μg of poly(dI-dC) for 30 minutes, followed by a 30 minutes incubation with 1ng of poly. nucleotide kinase-^32P labeled double stranded DNA oligonucleotide representing the IRF-1 STAT DNA binding sequence (Santa Cruz Biotechnology, Santa Cruz, Calif.). Samples were resolved by non-denaturing PAGE and visualized by autoradiography.
(A gel shift assay detects complexes by their altered migration in electrophoresis.)

Another assay relates to mast cell. As to conditions: cited from earlier work.

As a reminder, the pIC50 is −log10 of the IC50, conventionally taken in molar units. Read a high pIC50 as a small IC50. In the case of `COc1cc2ncnc(Nc3cccc(Br)c3)c2cc1OC` [WHI-P79, 4-(3′-Bromophenyl)-amino-6,7-dimethoxyquinazoline], the pIC50 at human JAK3 [1] was below 3.52.
With `COc1cc2ncnc(Nc3cc(Br)c(O)c(Br)c3)c2cc1OC` [WHI-P97, 4-(3′,5′-Dibromo-4′-hydroxylphenyl)-amino-6,7-dimethoxyquinazoline], the pIC50 against human JAK3 [2] and on human JAK3 [1] was 4.96 throughout.
Take `COc1cc2ncnc(Nc3ccc(C)c(Br)c3)c2cc1OC` [WHI-P111, 4-(3′-Bromo-4-methylphenyl)-amino-6,7-dimethoxyquinazoline]: at human JAK3 [1], the “JAK3 inhibitory activity (in words)” value is recorded as “do not inhibit JAK3” and the pIC50 is below 3.52. For the same compound, in the assay with RBL-2H3 mast cells [3], the LTC4 release entry was “did not inhibit”, the TNFα release result is listed as “did not inhibit” and the “β-hexosaminidase release (degranulation)” value is on record as “did not inhibit”.
As for `COc1cc2ncnc(Nc3cc(Br)ccc3Br)c2cc1OC` [WHI-P112, 4-(2′,5′-Dibromophenyl)-amino-6,7-dimethoxyquinazoline], on human JAK3 [1], the “JAK3 inhibitory activity (in words)” value is recorded as “do not inhibit JAK3” and the pIC50 was below 3.70. Further, the “JAK3 inhibitory activity (in words)” value on human JAK3 [1] (listed as WHI-112) was “does not inhibit JAK3”. The “IgE/antigen-induced mast cell activation (spreading and microtubule organization)” value in the assay on RBL-2H3 mast cells [4] was “unable to produce any significant effects”. In the assay with RBL-2H3 mast cells [3], the LTC4 release result is listed as “did not inhibit”, the TNFα release entry is “did not inhibit” and the “β-hexosaminidase release (degranulation)” value is “did not inhibit”.
As to `COc1cc2ncnc(Nc3ccccc3O)c2cc1OC` [WHI-P132, 4-(2′-Hydroxylphenyl)-amino-6,7-dimethoxyquinazoline], in assay [5], the “JAK3-dependent STAT activation after stimulation with IL-2” value is on record as “not”. Besides, on human JAK3 [1], the “JAK3 inhibitory activity (in words)” value is “inactive” and the pIC50 was below 3.52.
`COc1cc2ncnc(Nc3cccc(O)c3)c2cc1OC` [WHI-P180, 4-(3′-hydroxyphenyl)-amino-6,7-dimethoxyquinazoline] gave a pIC50 on human JAK3 [1] of 5.52. In the assay with mast cell (IgE/antigen induced mast cell responses), the “potency relative to WHI-P258” value was “much more potent”. For the same compound, in the assay on mast cell (IgE/antigen induced), the “mast cell degranulation (β-hexasaminidase release)” value is “effectively inhibited” and the “secretion of newly synthesized mediators (LTC4 release)” value is on record as “effectively inhibited”.
`COc1cc2ncnc(Nc3ccccc3)c2cc1OC` [WHI-P258, 4-(Phenyl)-amino-6,7-dimethoxyquinazoline]: on human JAK3 [1], the “JAK3 inhibitory activity (in words)” value is “lacks JAK3 inhibitory activity” and the pIC50 was below 3.52.
